Results on two molecules are retold here after PMC5078989, “Targeted inhibition of the COP9 signalosome for treatment of cancer” (Nature Communications, 2016).

One assay relates to HCT116 cells. In words: Immunoblotting of cullins, CRL components and substrates in HCT116 cells. It counts as cell-based, human. The settings on record: qualitative western blot analysis. As for the experimental part:
Figure 2 CSN5 inhibition results in the inactivation of a subset of CRLs and the stabilization of their substrates. Effect on CRL components and substrates after treatment of HCT116 cells with either 1 μM MLN4924 or 1 μM CSN5i-3. (a) Immunoblottings for Cul1 and its CRL components Rbx and Skp1; (b) for cullins Cul2, Cul3 and Cul4A; (c) for F-box protein Skp2 and the SCF^Skp2 substrates p21 and p27; (d) for F-box proteins Fbxo22 and Fbxo30; (e) for F-box protein βTrCP and the SCF^βTrCP substrates Wee1 and pIκBα; (f) for the adaptor KEAP1 and the Cul3^KEAP1 substrate Nrf2; (g) for F-box proteins Fbxw7 and Fbxo3.
Cells were maintained in a humidified incubator at 37 °C and 5% CO2. HCT116 cells (ATCC #CCL-247) were grown in McCoy's 5A medium (GIBCO #16600–082) supplemented with 10% fetal bovine serum (FBS), TE-1 (RIKEN BioResource Center, #RCB1894), NCI-H2030 (ATCC #CRL-591), SU-DHL-1 (DMSZ #ACC 356), NOMO-1 (HSRRB #IFO50474) and NCIH196 cells (ATCC, #CRL-5823) in RPMI-1640 medium (GIBCO#61870–010) supplemented with 10% FBS, 10 mM HEPES, 1 mM sodium pyruvate and THP-1 cells (ATCC #TIB-202) with additional 0.05 mM 2-mercaptoethanol. DMS273 cells (ECACC #950628) were cultured in Waymouth's MB 752/1 medium (GIBCO#11220–035) supplemented with 10% FBS. All cells were negatively tested for mycoplasma contamination either by the vendor or in house. For treatment with compounds, sub-confluent cells were either treated with inhibitors at the indicated concentrations or mock treated with an equivalent amount of DMSO (final content 0.1%). If not stated otherwise, cells were harvested after incubation for 16 h and subjected to SDS–PAGE and western blotting. The RNA interference experiment was performed with CSN5 stealth siRNA (#HSS116986) and stealth negative control siRNA (#12935–400) (Invitrogen), which were transfected at 10 nM into HCT116 cells using HiperFect (Qiagen) according to the manufacturer's protocols. Seventy-two hours after transfection, cells were harvested and subjected to SDS–PAGE and western blotting (see Supplementary Fig. 7 for all western blottings performed).
For further analysis, cell lysates were prepared by direct lysis with 2 × Sample buffer (65.8 mM Tris-HCl, pH 6.8, 2.1% SDS, 26.3% glycerol, 0.01% bromophenol blue and 20 mM DTT). Protein lysates from tumour powder were prepared in RIPA buffer (50 mM Tris-HCl pH 8.0, 150 mM NaCl, 1% Triton X-100, 2 mM EDTA, 0.5% sodium deoxycholate and 0.1% SDS) supplemented with 10 mM N-ethylmaleimide, protease inhibitor and phosphatase inhibitor cocktails (Roche Diagnostics). Cells from longer compound incubations were also lysed in RIPA buffer, which allows the protein concentration to be determined by BCA Protein Assay Kit (Pierce). Proteins were separated by SDS–PAGE using 4–20% Tris-Glycine Gels (Invitrogen) and subsequently transferred to polyvinylidene difluoride membranes using a Trans-Blot Turbo System (BioRad). […] Horseradish peroxidase-conjugated secondary antibodies (1:3,000) were purchased from Promega AG and bound antibody was detected by enhanced chemiluminescence (Pierce).

The test system of assay [1] is panel of cancer cell lines. In words: Cell viability (CellTiter-Glo) dose-response across cancer cell line panel.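 Note: after 72 h compound incubation with CellTiter-Glo ATP readout.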 The settings on record: SNB-19. The assay is classed as cell-based, human. The text has this:
Next, we explored the effect of CSN5 inhibition on the viability of cancer cells. To obtain a comprehensive picture, we generated dose–response curves with a CSN5 inhibitor across more than 500 cancer cell lines in a previously described standardized setting[47] (Supplementary Data 1).
A standardized CellTiter-Glo Assay (Promega #G7570) based on the quantification of ATP was applied according to the manufacturer's protocol to measure the amount of viable cells in culture. In brief, cells were seeded into 384-well plates at optimal density for each cell line. After 4 h, compounds were added at different concentrations in growth medium and incubated for another 72 h in a humidifying chamber at 37 °C and 5% CO2. […] EC50 values were calculated from the plot of percentage of inhibition versus inhibitor concentration using the nonlinear regression analysis software Origin 7.5SR6 (OriginLab Corp.).

`N#Cc1ccc([C@H]2[C@@H](O)CCCc3cncn32)c(-c2ccccc2)c1` (relative stereo) [CSN5i-1a, Cis-6-(6-Hydroxy-6,7,8,9-tetrahydro-5H-imidazo[1,5-a]azepin-5-yl)-[1,1′-biphenyl]-3-carbonitrile]: the “cullin-1 (Cul1) deneddylation in HCT116 cells” value with HCT116 cells is reported as “weakly inhibited”.
As to `CC(C)C[C@H](NC(=O)[C@H](Cc1ccccc1)NC(=O)c1cnccn1)B(O)O` [Botezomib], the midpoint of the response in assay [1], the EC50, lay at 9.53 nM.
